In patent US9661870B2, “Nanogel comprising water-soluble active ingredients” (DSM IP ASSETS B.V., priority 2012, dated 2017):

What was measured:
[1] = Interaction of folic acid with soy protein, soy polysaccharide or complex nanogel at pH 7.4; free folic acid isolated by ultrafiltration; type: physicochemical; conditions: FA concentration in feed 0.5 mM
Method: Considering the solubility of folic acid, the interaction at pH 7.4 was investigated. The individual protein solution, individual polysaccharide solution, and the protein/polysaccharide complex nanogel solution were adjusted to pH 7.4 first. Then the folic acid, dissolved in 10 mM phosphate buffer pH 7.4, was added and the mixture was incubated under stirring at room temperature overnight. The final protein concentration in the mixture was 4 mg/ml and polysaccharide concentration was 12 mg/ml. The free folic acid in the mixture was isolated by a high-flow ultrafiltration membrane (cutoff molecular weight 3 kDa, MicroconYM-3, Millipore), and was collected in the ultrafiltrate. Individual folic acid solution was also passed through the ultrafiltration membrane; 97% of the folic acid (Table 1) in the ultrafiltrate confirms the recovery of the folic acid. The individual protein, individual polysaccharide, and protein/polysaccharide complex nanogel solutions were also passed through the ultrafiltration membrane; their UV spectra of the ultrafiltrates (FIG. 1) show the absorbance at UV region, indicating small peptides in the ultrafiltrates. The FA concentration in the ultrafiltrate was calculated by deducting the 280 nm absorbance shown in FIG. 1 from the 280 nm absorbance of the ultrafiltrate.

[2] = UV degradation of folic acid (450 nm fluorescence before and after UV radiation); type: physicochemical; conditions: for Degradation degree / IUV/I (ratio of FA fluorescence intensity after UV radiation to before): UV radiation pH 7.4
From the text: As mentioned above, folic acid is sensitive to UV radiation. Because of intramolecular fluorescence quenching, folic acid has an extremely low fluorescence quantum yield, approximately 0.005. Pterins, which is formed after the cleavage of the C9-N10 bond in the folic acid molecule, has an increased fluorescence peak around 445 nm. The fluorescence quantum yield of 6-formyl pterin (FPT) is nearly 0.1 and that of pterin-6-carboxylic acid (PCA) is about 0.2. The fluorescence in the region of 445 nm increases with the formation of FPT as a result of the C9-N10 bond cleavage followed by the photo-induced conversion of FPT to PCA [M. K. Off et al., Journal of Photochemistry and Photobiology B: Biology 80 (2005) 47-55].
The UV degradation of folic acid was investigated in this study. The folic acid/protein/polysaccharide nanogel solution at pH 4.0 containing 0.25 or 0.5 mM folic acid was placed in a 7 ml glass bottle at a distance of 30 cm from a UV radiometer (500 w, peak A=365 nm) for 1 h. Individual folic acid dissolved in 10 mM pH 7.4 phosphate buffer with FA concentration of 0.25 or 0.5 mM was also investigated. The mixture of 5 mg/ml protein and 0.25 mM folic acid at pH 7.4, and the mixture of 15 mg/ml polysaccharide and 0.25 mM folic acid at pH 7.4 were also investigated. After the UV radiation, the folic acid/protein/polysaccharide nanogel solution was adjusted to pH 7.4 to release folic acid. The released folic acid in the solution was isolated by ultrafiltration and was analyzed as described below. After 10 and 20 times dilution for 0.25 and 0.5 mM folic acid, respectively, the 450 nm fluorescence intensity of the ultrafiltrate excited at 348 nm was measured.
For individual folic acid solution, after the UV radiation, the fluorescence intensity at 450 nm increases 89 and 85 times when folic acid concentration was 0.25 and 0.5 mM, respectively. The average 87 times of the increase for the fluorescence intensity after the UV radiation indicates the degradation of the folic acid inside the glass bottle. […] Compared with the individual folic acid, the degradation of folic acid reduces to 30% and 22% in the presence of polysaccharide and protein at pH 7.4, respectively. Folic acid/protein/polysaccharide nanogels can effectively protect the folic acid from the degradation at pH 4.0; only 12% of the loaded folic acid was degraded after the same UV radiation. […] The released and isolated folic acid from folic acid/protein/polysaccharide nanogels was radiated by UV light. After the same radiation, the folic acid fluorescence changed as the folic acid solution prepared at pH 7.4 directly.
The UV degradation of folic acid was investigated. Compared with the individual folic acid, the degradation of folic acid reduces to 19% in the presence of pea protein (Table 4). Folic acid/pea protein/polysaccharide nanogels can effectively protect the folic acid from the degradation at pH 4.0; only 13% of the loaded folic acid was degraded after the same UV radiation.

[3] = cited from earlier work
[4] = Table 3, FA in feed 0.25 mM, UV 1 h
[5] = Table 3, FA in feed 0.5 mM, UV 1 h

| FA concentration in ultrafiltration [1] [mM] | Recovered FA in ultrafiltration [1] [%] | Recovered FA in ultrafiltration ([1]; listed as folic acid) [%] | Degradation degree [2, 4] [%] | IUV/I (ratio of FA fluorescence intensity after UV radiation to before) [2, 4] | IUV/I (ratio of FA fluorescence intensity after UV radiation to before) ([2]; Table 3, FA in feed 0.25 mM, UV 1 h, listed as folic acid) | Degradation degree [2, 5] [%] | IUV/I (ratio of FA fluorescence intensity after UV radiation to before) [2, 5] | IUV/I (ratio of FA fluorescence intensity after UV radiation to before) ([2]; Table 3, FA in feed 0.5 mM, UV 1 h, listed as folic acid) | Degradation degree ([2]; Table 4, FA in feed 0.25 mM) [%] | IUV/I (ratio of FA fluorescence intensity after UV radiation to before) ([2]; Table 4, FA in feed 0.25 mM) | average increase of the fluorescence intensity after the UV radiation ([2]; average of 0.25 and 0.5 mM FA, pH 7.4) [times] | Structure (SMILES) | pKa [3] |
| --- | --- | --- | --- | --- | --- | --- | --- | --- | --- | --- | --- | --- | --- |
| 0.485 ± 0.01 | 97 ± 2 | 97 | 100 | 89 ± 3 | 89 | 100 | 85 ± 2 | 85 | 100 | 91 | 87 | Nc1nc2ncc(CNc3ccc(C(=O)N[C@@H](CCC(=O)O)C(=O)O)cc3)nc2c(=O)[nH]1 [FA, folic acid] | 4.7 |
|  |  |  |  |  |  |  |  |  |  |  |  | O=C(O)CCCC[C@@H]1SC[C@@H]2NC(=O)N[C@@H]21 [biotin] | 5.33 |
